Entries after “also recorded” stand apart in the source; their conditions may differ. Read-outs that look alike come from different tables or passages of the source.

One data set relates to D-hair mechanoreceptors. Briefly: Skin-nerve preparation (saphenous nerve), D-hair mechanoreceptors. Further details: species or system mice. The following applies: 3 μM mibefradil in the bath solution. The method, then:
(§1) The use of the skin-nerve preparation, which the present invention is based on, allows for the electrophysiological analysis of the different neurofibre types which innervate the skin (Koltzenburg et al., 1997, see above). The saphenous nerve and the region of the skin that it innervates are prepared from freshly killed mice and are mounted in a bath of physiological buffer. After mechanical or electrical stimulation of the skin, the nerve signals can be received directly from the nerve. For determining the effective concentration, tests were carried out with different concentrations of mibefradil in the bath solution. The EC50 of mibefradil on cells is between 0.1 and 1 μM. […] The unspecific blockade at high concentrations may be due to the fact that mibefradil, at high concentrations, has a very unspecific effect on other ubiquitously expressed calcium channels. Such blocking is lost at lower concentrations. The blocking of some AM mechanoreceptors also at low concentrations of mibefradil could have two reasons. The first possibility is that AM mechanoreceptors, too, express CaV3.2. This, however, is not very likely based on the findings obtained by the in-situ hybridisation within the framework of the present invention. It may rather be assumed that a different isotype, i.e. CaV3.3 is expressed in AM mechanoreceptors. […]

The subject of another data set is AM mechanoreceptors. Briefly: Skin-nerve preparation (saphenous nerve), AM mechanoreceptors. Further details: species or system mice. Conditions: 3 μM mibefradil in the bath solution. The method, then:
as §1

For data set [1], the system named is cutaneous mechanotransduction. Briefly: Skin-nerve preparation (saphenous nerve), mechanical sensitivity of the skin. Also noted: species or system mice. On the procedure: The use of the skin-nerve preparation, which the present invention is based on, allows for the electrophysiological analysis of the different neurofibre types which innervate the skin (Koltzenburg et al., 1997, see above). The saphenous nerve and the region of the skin that it innervates are prepared from freshly killed mice and are mounted in a bath of physiological buffer. After mechanical or electrical stimulation of the skin, the nerve signals can be received directly from the nerve. For determining the effective concentration, tests were carried out with different concentrations of mibefradil in the bath solution. The EC50 of mibefradil on cells is between 0.1 and 1 μM. […] The unspecific blockade at high concentrations may be due to the fact that mibefradil, at high concentrations, has a very unspecific effect on other ubiquitously expressed calcium channels. Such blocking is lost at lower concentrations. The blocking of some AM mechanoreceptors also at low concentrations of mibefradil could have two reasons. The first possibility is that AM mechanoreceptors, too, express CaV3.2. This, however, is not very likely based on the findings obtained by the in-situ hybridisation within the framework of the present invention. It may rather be assumed that a different isotype, i.e. CaV3.3 is expressed in AM mechanoreceptors. It was not possible to detect CaV3.3 in in-situ hybridisation experiments in spinal ganglia, but other groups reported the expression of this calcium channel in medium-size cells. […] To sum up, it is concluded that the calcium channel CaV3.2 in spinal ganglia specifically expresses in D-hair mechanoreceptors and is therefore indispensable for its function. The discovery that the voltage-dependent calcium channels are involved in the transduction of mechanical stimuli by nociceptive and non-nociceptive neurons is new. Due to their physiological properties together with their specific localisation on the site of the mechanotransduction in the periphery, the calcium channels are ideal targets for pain therapy, which the invention is based on.

A further data set concerns CaV3.3. Conditions: compared with CaV3.2, cited from earlier work.
The next data set concerns T-type calcium channels. Conditions: cited from earlier work.
For data set [2] the following is noted: reason for removal from the market; cited from earlier work.
For the next data set, the system named is L-type calcium channels. The following applies: cited from earlier work.
The next data set deals with CaV3.1 (Rattus norvegicus, UniProt O54898). The following applies: compared with CaV3.2; cited from earlier work.
Chain of CaV3.1 (O54898 whole entry): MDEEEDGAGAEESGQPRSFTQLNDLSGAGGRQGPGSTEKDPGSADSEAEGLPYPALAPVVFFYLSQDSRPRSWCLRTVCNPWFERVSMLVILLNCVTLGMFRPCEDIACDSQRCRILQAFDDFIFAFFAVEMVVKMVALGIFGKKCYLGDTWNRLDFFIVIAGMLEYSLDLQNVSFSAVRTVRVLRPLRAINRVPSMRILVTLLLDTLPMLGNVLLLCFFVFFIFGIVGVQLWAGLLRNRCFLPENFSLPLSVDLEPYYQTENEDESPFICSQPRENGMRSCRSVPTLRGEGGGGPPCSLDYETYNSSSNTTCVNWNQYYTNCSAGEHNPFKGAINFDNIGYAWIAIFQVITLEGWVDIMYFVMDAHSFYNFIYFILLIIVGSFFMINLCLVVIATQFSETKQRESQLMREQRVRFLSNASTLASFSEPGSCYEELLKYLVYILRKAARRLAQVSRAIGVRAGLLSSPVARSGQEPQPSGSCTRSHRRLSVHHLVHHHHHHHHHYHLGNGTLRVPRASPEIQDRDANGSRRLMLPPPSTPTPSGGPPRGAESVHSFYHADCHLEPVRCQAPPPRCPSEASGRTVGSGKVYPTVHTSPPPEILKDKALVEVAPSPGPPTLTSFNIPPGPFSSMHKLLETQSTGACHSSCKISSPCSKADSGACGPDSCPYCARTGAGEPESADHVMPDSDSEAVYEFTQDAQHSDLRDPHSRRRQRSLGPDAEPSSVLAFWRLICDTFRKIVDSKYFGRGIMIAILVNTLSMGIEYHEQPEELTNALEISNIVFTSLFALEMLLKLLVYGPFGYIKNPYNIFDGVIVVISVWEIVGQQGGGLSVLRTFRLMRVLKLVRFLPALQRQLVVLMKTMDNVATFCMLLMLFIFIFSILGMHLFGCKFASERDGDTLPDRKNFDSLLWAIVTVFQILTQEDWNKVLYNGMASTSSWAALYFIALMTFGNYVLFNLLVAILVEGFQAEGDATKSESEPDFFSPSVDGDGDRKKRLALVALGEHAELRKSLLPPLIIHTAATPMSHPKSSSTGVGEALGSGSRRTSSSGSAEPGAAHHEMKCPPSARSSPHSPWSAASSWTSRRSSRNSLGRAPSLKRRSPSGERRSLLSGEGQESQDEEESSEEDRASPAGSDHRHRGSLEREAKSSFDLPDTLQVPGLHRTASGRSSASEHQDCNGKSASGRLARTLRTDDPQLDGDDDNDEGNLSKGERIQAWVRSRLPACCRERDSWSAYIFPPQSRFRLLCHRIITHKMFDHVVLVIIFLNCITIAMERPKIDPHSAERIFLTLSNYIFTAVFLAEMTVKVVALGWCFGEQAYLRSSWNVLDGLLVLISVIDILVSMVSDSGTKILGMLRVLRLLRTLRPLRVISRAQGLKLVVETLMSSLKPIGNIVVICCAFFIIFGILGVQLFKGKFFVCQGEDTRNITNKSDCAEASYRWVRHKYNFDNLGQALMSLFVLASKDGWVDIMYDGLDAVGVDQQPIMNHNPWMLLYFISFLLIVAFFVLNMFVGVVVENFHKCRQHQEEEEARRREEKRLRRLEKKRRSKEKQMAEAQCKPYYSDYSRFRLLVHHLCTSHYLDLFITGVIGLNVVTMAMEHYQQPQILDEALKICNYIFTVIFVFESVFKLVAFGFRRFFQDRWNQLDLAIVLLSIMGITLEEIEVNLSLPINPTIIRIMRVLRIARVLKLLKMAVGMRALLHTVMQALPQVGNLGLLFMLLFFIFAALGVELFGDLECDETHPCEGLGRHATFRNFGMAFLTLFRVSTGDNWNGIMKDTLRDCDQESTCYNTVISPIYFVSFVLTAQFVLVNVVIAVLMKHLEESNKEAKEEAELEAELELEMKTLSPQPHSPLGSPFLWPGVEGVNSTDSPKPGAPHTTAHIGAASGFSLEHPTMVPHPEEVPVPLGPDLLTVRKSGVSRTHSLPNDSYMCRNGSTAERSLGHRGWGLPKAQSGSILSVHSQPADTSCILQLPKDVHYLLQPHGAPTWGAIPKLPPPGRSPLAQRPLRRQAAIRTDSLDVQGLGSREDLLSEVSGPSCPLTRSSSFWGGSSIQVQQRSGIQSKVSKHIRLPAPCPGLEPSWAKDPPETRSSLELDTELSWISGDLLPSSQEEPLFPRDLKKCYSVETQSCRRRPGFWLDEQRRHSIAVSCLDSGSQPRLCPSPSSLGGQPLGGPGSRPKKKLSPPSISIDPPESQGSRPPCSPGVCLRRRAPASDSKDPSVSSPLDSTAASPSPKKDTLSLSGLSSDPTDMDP
The next data set concerns the target CaV3.2 (Homo sapiens, UniProt O95180). Conditions: cited from earlier work.
The test system of the next data set is living tissue. The following applies: cited from earlier work.

Chain of CaV3.2 (O95180 whole entry): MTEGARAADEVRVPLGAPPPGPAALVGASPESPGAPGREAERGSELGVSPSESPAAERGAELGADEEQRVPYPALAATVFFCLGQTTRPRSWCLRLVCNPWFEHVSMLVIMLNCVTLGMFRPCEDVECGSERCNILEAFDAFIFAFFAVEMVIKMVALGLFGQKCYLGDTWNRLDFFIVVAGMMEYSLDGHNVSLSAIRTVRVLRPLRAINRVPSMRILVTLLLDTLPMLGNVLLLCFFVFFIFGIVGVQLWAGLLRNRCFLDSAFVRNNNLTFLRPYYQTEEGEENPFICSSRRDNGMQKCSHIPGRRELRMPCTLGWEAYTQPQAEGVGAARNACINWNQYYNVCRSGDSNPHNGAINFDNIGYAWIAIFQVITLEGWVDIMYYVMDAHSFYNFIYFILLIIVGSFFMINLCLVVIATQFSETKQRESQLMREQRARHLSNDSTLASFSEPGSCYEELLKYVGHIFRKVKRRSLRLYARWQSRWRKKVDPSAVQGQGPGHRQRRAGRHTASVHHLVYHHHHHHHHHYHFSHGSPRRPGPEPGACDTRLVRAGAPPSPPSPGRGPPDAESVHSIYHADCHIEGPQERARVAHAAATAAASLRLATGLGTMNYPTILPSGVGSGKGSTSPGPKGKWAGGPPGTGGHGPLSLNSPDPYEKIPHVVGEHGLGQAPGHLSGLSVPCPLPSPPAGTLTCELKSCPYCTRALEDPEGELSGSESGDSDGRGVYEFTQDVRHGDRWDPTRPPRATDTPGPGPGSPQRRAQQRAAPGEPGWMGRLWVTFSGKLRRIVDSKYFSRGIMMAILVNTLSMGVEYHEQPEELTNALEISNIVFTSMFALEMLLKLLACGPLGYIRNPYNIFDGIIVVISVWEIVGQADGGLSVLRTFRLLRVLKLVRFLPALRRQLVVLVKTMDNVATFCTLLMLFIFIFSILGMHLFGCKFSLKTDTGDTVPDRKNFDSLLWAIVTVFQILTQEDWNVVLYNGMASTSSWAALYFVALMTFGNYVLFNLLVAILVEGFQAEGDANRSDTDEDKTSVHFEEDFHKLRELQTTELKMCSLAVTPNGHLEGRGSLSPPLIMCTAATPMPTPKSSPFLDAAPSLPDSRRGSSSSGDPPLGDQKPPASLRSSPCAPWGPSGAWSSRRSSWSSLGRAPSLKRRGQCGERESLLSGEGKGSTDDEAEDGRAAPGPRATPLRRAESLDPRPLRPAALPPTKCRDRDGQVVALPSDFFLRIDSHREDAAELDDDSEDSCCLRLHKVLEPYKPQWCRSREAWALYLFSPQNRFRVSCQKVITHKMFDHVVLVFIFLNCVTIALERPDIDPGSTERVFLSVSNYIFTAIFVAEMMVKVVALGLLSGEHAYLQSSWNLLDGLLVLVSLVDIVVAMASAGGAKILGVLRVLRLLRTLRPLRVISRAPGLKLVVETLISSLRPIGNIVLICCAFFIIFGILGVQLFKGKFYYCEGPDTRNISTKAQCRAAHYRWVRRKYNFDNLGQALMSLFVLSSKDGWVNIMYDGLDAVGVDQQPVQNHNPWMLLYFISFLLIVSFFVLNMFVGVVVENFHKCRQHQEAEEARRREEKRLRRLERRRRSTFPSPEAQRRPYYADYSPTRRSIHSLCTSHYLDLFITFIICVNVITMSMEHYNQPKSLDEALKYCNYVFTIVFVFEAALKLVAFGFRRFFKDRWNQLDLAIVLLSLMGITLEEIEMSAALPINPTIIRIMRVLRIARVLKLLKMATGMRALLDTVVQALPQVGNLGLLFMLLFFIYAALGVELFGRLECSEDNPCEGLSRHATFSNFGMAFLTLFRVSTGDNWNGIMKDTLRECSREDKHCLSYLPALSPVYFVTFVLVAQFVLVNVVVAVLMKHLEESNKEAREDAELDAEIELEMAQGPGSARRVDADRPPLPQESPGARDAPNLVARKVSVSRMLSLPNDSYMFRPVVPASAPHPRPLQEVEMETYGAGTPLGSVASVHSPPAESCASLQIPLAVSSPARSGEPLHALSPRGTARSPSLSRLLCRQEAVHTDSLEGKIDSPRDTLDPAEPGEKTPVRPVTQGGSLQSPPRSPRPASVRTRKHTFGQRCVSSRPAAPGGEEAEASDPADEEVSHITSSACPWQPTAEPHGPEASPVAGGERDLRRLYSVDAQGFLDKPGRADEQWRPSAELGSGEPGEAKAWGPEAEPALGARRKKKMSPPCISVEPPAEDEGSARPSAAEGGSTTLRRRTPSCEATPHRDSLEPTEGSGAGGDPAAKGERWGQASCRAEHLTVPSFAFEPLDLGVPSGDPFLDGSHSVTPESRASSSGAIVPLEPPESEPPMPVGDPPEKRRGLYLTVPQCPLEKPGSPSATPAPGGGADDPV

Take `COCC(=O)O[C@]1(CCN(C)CCCc2nc3ccccc3[nH]2)CCc2cc(F)ccc2[C@@H]1C(C)C` [mibefradil]: in the data set with D-hair mechanoreceptors, the “inhibition of D-hair mechanoreceptors” value is recorded as “specifically inhibited”. Besides, the “inhibition of AM mechanoreceptors” value in the data set with AM mechanoreceptors is recorded as “in part, also AM mechanoreceptors are specifically inhibited”. The blocking of mechanotransduction entry in data set [1] (higher concentrations of mibefradil) is “complex blocking of other mechanoreceptors; also recorded: blocks not only the D-hair mechanotransduction but also the entire mechanotransduction”. For the same compound, the “inhibition of cutaneous mechanotransduction” value in data set [1] (low concentrations (25 μM or less)) is recorded as “virtually inhibits the entire cutaneous mechanotransduction”. Also, the “blocking of the mechanical sensitivity” value in [1] (more than 25 μM mibefradil in the bath solution) was “almost complete and unspecific blocking of the mechanical sensitivity”. Moreover, the “effect / semi-effective concentration on CaV3.3” value in the data set on CaV3.3 is “almost identical”; with CaV3.3 (listed as Mibefradil) it was “almost identical effect”. For the same compound, the “selectivity for T-type calcium channels” value in the data set on T-type calcium channels is “relatively high selectivity for T-type calcium channels”. Besides, the “interaction with other medicaments” value in [2] is listed as “severe interaction with other medicaments”. Besides, the “concentration blocking L-type relative to that necessary for T-type blocking” value with L-type calcium channels is listed as “about 10 fold”. Also, on CaV3.1, the “effect on T-type isotype CaV3.1” value was “almost identical effect”.

Regarding `[Ni]` [nickel], the “EC50 on CaV3.2 relative to the other isotypes” value on CaV3.2 (CaV3.2 versus other T-type isotypes) is given as 70 times. In addition, the EC50 on CaV3.2 (read-out: EC50 on CaV3.2) is around 10 µM. In addition, in the data set on living tissue, the cytotoxicity entry is reported as “cytotoxic”.

The record behind these values is patent US20060110332A1, “Agent for medicamentous treatment of acute and chronic pain” (Max-Delbruck-Centrum Fur Molekulare Medizin, priority 2002, published 2006).
